Assay results: PubChem BioAssay AID328 (DTP/NCI, 2004)
Several values for one entry are separate records, joined by “and”; a condition that tells them apart may be missing. Identical values can stand only once. Toxic doses and inconclusive results are not listed.

Key:
[1] = tested on: BDF1 mice, P388 leukemia ip, median survival T/C; assay: NCI In Vivo Anticancer Drug Screen. Data for tumor model P388 Leukemia (intraperitoneal) in B6D2F1 (BDF1) mice; settings: endpoint: median survival time, higher = longer survival
Procedure, shortened: (§1)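 Antitumour effect was judged in vivo: survival in drug-treated mice, normalised to that of vehicle-dosed controls, gives the reported T/C.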

[2] = tested on: BDF1 mice, P388 leukemia ip; assay: as above; settings: endpoint: mean survival time, higher = longer survival
Procedure, shortened: as §1

[3] = dose: 25.0 mg/kg/injection, schedule: Q04DX003 (ip), vehicle: water
[4] = dose: 50.0 mg/kg/injection, schedule: Q04DX003 (ip), vehicle: water
[5] = dose: 100.0 mg/kg/injection, schedule: Q04DX003 (ip), vehicle: water
[6] = dose: 200.0 mg/kg/injection, schedule: Q04DX003 (ip), vehicle: water
[7] = dose: 400.0 mg/kg/injection, schedule: Q04DX003 (ip), vehicle: water
[8] = dose: 50.0 mg/kg/injection, schedule: Q01DX009 (ip), vehicle: saline with Tween-80
[9] = dose: 100.0 mg/kg/injection, schedule: Q01DX009 (ip), vehicle: saline with Tween-80
[10] = dose: 200.0 mg/kg/injection, schedule: Q01DX009 (ip), vehicle: saline with Tween-80

## CCC1(O)CC(OC2CC(N(C)C)C(OC3CC4OC5CC(=O)C(C)OC5OC4C(C)O3)C(C)O2)c2c(cc3c(c2O)C(=O)c2c(O)ccc(O)c2C3=O)C1C(=O)OC (stereo unspecified)
[1]; dose: 0.75 mg/kg/injection, schedule: Q01DX001 (ip), vehicle: saline
  T/C: 104 % of control
[1]; dose: 0.86 mg/kg/injection, schedule: Q04DX003 (ip), vehicle: water
  T/C: 121 % of control
[1]; dose: 1.25 mg/kg/injection, schedule: Q01DX001 (ip), vehicle: saline
  T/C: 114 % of control
[1]; dose: 1.3 mg/kg/injection, schedule: Q04DX003 (ip), vehicle: water
  T/C: 157 % of control
[1]; dose: 1.5 mg/kg/injection, schedule: Q01DX001 (ip), vehicle: saline
  T/C: 109 % of control
[1]; dose: 1.73 mg/kg/injection, schedule: Q04DX003 (ip), vehicle: water
  T/C: 155 % of control
[1]; dose: 2.16 mg/kg/injection, schedule: Q04DX003 (ip), vehicle: water
  T/C: 191 % of control
[1]; dose: 2.4 mg/kg/injection, schedule: Q04DX003 (ip), vehicle: water
  T/C: 165 % of control
[1]; dose: 5.0 mg/kg/injection, schedule: Q01DX001 (ip), vehicle: saline
  T/C: 166 % of control
[1]; dose: 10.0 mg/kg/injection, schedule: Q01DX001 (ip), vehicle: saline
  T/C: 195 % of control
[2]; dose: 0.09 mg/kg/injection, schedule: Q01DX010 (ip), vehicle: saline
  T/C: 111 % of control
[2]; dose: 0.38 mg/kg/injection, schedule: Q01DX010 (ip), vehicle: saline
  T/C: 95 % of control
[2]; dose: 1.5 mg/kg/injection, schedule: Q01DX010 (ip), vehicle: saline
  T/C: 87 % of control

## CCN(CC)CCCC(C)NC(=O)c1cccc2c(N)cccc12 (stereo unspecified)
[1]; [3]
  T/C: 91 % of control
[1]; [4]
  T/C: 106 % of control
[1]; [5]
  T/C: 97 % of control
[1]; [6]
  T/C: 100 % of control
[1]; [7]
  T/C: 104 % of control
[2]; dose: 25.0 mg/kg/injection, schedule: Q01DX009 (ip), vehicle: water
  T/C: 98 % of control
[2]; dose: 50.0 mg/kg/injection, schedule: Q01DX009 (ip), vehicle: water
  T/C: 106 % of control
[2]; dose: 100.0 mg/kg/injection, schedule: Q01DX009 (ip), vehicle: water
  T/C: 93 % of control
[2]; dose: 200.0 mg/kg/injection, schedule: Q01DX009 (ip), vehicle: water
  T/C: 91 % of control
[2]; dose: 400.0 mg/kg/injection, schedule: Q01DX009 (ip), vehicle: water
  T/C: 110 % of control

## CC1=C(C)C(=O)O[C@@H]([C@](C)(O)[C@]2(O)CC[C@@]3(O)[C@@H]4C[C@H]5O[C@]56CC=CC(=O)[C@]6(C)[C@H]4CC[C@]23C)C1
[2]; dose: 50.0 mg/kg/injection, schedule: Q02DX003 (ip), vehicle: saline
  T/C: 114 % of control
[2]; dose: 100.0 mg/kg/injection, schedule: Q02DX003 (ip), vehicle: saline
  T/C: 117 % of control

## CC(=O)OC1C(=O)C(O)C(C)OC1O[C@@H]1C[C@@]2(C)[C@@H]3CC=C4[C@@H](C[C@H](O)C(=O)C4(C)C)[C@]3(C)C(=O)C[C@]2(C)[C@H]1[C@@](C)(O)C(=O)/C=C/C(C)(C)O (stereo partly specified)
[1]; dose: 0.13 mg/kg/injection, schedule: Q01DX009 (ip), vehicle: Klucel (hydroxypropylcellulose) (HPC)
  T/C: 104 % of control
[1]; dose: 0.16 mg/kg/injection, schedule: Q01DX010 (ip), vehicle: saline
  T/C: 107 % of control and 110 % of control
[1]; dose: 0.25 mg/kg/injection, schedule: Q01DX009 (ip), vehicle: Klucel (hydroxypropylcellulose) (HPC)
  T/C: 109 % of control
[1]; dose: 0.25 mg/kg/injection, schedule: Q01DX010 (ip), vehicle: carboxymethylcellulose (CMC)
  T/C: 90 % of control
[1]; dose: 0.33 mg/kg/injection, schedule: Q01DX010 (ip), vehicle: saline
  T/C: 109 % of control and 110 % of control
[1]; dose: 0.5 mg/kg/injection, schedule: Q01DX009 (ip), vehicle: Klucel (hydroxypropylcellulose) (HPC)
  T/C: 118 % of control
[1]; dose: 0.5 mg/kg/injection, schedule: Q01DX010 (ip), vehicle: carboxymethylcellulose (CMC)
  T/C: 87 % of control and 90 % of control
[1]; dose: 0.67 mg/kg/injection, schedule: Q01DX010 (ip), vehicle: saline
  T/C: 108 % of control and 110 % of control
[1]; dose: 1.0 mg/kg/injection, schedule: Q01DX009 (ip), vehicle: Klucel (hydroxypropylcellulose) (HPC)
  T/C: 113 % of control
[1]; dose: 1.25 mg/kg/injection, schedule: Q01DX010 (ip), vehicle: saline
  T/C: 109 % of control and 110 % of control
[1]; dose: 1.4 mg/kg/injection, schedule: Q01DX009 (ip), vehicle: saline
  T/C: 150 % of control
[1]; dose: 2.0 mg/kg/injection, schedule: Q01DX009 (ip), vehicle: Klucel (hydroxypropylcellulose) (HPC)
  T/C: 90 % of control
[1]; dose: 2.5 mg/kg/injection, schedule: Q01DX010 (ip), vehicle: saline
  T/C: 110 % of control and 111 % of control
[1]; dose: 2.6 mg/kg/injection, schedule: Q01DX009 (ip), vehicle: saline
  T/C: 120 % of control

## COc1ccc2c(c1)CCN(C1=C(C)C(=O)CC1)C2CC(=O)O (stereo unspecified)
[1]; dose: 100.0 mg/kg/injection, schedule: Q01DX001 (ip), vehicle: saline sonified
  T/C: 100 % of control
[1]; dose: 200.0 mg/kg/injection, schedule: Q01DX001 (ip), vehicle: saline sonified
  T/C: 100 % of control
[1]; dose: 400.0 mg/kg/injection, schedule: Q01DX001 (ip), vehicle: saline sonified
  T/C: 100 % of control

## ON=C(CSCc1ccccc1)CSCc1ccccc1
[1]; dose: 50.0 mg/kg/injection, schedule: Q04DX003 (ip), vehicle: saline with Tween-80
  T/C: 99 % of control
[1]; dose: 100.0 mg/kg/injection, schedule: Q04DX003 (ip), vehicle: saline with Tween-80
  T/C: 103 % of control
[1]; dose: 200.0 mg/kg/injection, schedule: Q04DX003 (ip), vehicle: saline with Tween-80
  T/C: 88 % of control
[1]; dose: 400.0 mg/kg/injection, schedule: Q04DX003 (ip), vehicle: saline with Tween-80
  T/C: 95 % of control

## NC1=NS(=O)(=O)N=C(N)C1=NNc1cccc(Cl)c1
[1]; [8]
  T/C: 94 % of control
[1]; [9]
  T/C: 103 % of control
[1]; [10]
  T/C: 92 % of control

## CCN(C(=O)CCl)C(C)(C)C(SSSC(c1ccc(Cl)cc1)C(C)(C)N(CC)C(=O)CCl)c1ccc(Cl)cc1 (stereo unspecified)
[1]; dose: 12.5 mg/kg/injection, schedule: Q01DX009 (ip), vehicle: saline
  T/C: 118 % of control
[1]; dose: 16.5 mg/kg/injection, schedule: Q01DX009 (ip), vehicle: saline
  T/C: 116 % of control
[1]; dose: 25.0 mg/kg/injection, schedule: Q01DX009 (ip), vehicle: saline
  T/C: 116 % of control
[1]; dose: 37.5 mg/kg/injection, schedule: Q01DX009 (ip), vehicle: saline
  T/C: 116 % of control
[1]; dose: 50.0 mg/kg/injection, schedule: Q01DX009 (ip), vehicle: saline
  T/C: 118 % of control

## CCOC(=O)/C(C#N)=C/C=C1C=CN(C)C=C1
[1]; [8]
  T/C: 86 % of control
[1]; [9]
  T/C: 105 % of control
[1]; [10]
  T/C: 116 % of control

## COc1cc2c(cc1OC)C(C#N)N(C(=O)c1ccccc1)C=C2 (stereo unspecified)
[1]; [3]
  T/C: 114 % of control
[1]; [4]
  T/C: 99 % of control
[1]; [5]
  T/C: 94 % of control
[1]; [6]
  T/C: 94 % of control
[1]; [7]
  T/C: 112 % of control

## CC1C=NNC1=O (stereo unspecified)
[1]; dose: 100.0 mg/kg/injection, schedule: Q01DX001 (ip), vehicle: saline with Tween-80
  T/C: 95 % of control and 118 % of control
[1]; dose: 175.0 mg/kg/injection, schedule: Q01DX001 (ip), vehicle: saline with Tween-80
  T/C: 100 % of control
[1]; dose: 176.0 mg/kg/injection, schedule: Q01DX009 (ip), vehicle: Klucel (hydroxypropylcellulose) (HPC)
  T/C: 120 % of control
[1]; dose: 200.0 mg/kg/injection, schedule: Q01DX001 (ip), vehicle: saline with Tween-80
  T/C: 104 % of control
[1]; dose: 265.0 mg/kg/injection, schedule: Q01DX001 (ip), vehicle: saline with Tween-80
  T/C: 100 % of control
[1]; dose: 400.0 mg/kg/injection, schedule: Q01DX001 (ip), vehicle: saline with Tween-80
  T/C: 100 % of control
[1]; dose: 600.0 mg/kg/injection, schedule: Q01DX001 (ip), vehicle: saline with Tween-80
  T/C: 109 % of control

## COc1cc2ccc3c(c2cc1OC)CN1CCc2cc4c(cc2C1C3)OCO4 (stereo unspecified)
[1]; dose: 44.0 mg/kg/injection, schedule: Q01DX009 (ip), vehicle: saline with Tween-80
  T/C: 115 % of control
[1]; [8]
  T/C: 120 % of control
[1]; dose: 100.0 mg/kg/injection, schedule: Q04DX003 (ip), vehicle: saline
  T/C: 118 % of control
[1]; [10]
  T/C: 112 % of control
[1]; dose: 200.0 mg/kg/injection, schedule: Q04DX003 (ip), vehicle: saline
  T/C: 100 % of control
[1]; dose: 400.0 mg/kg/injection, schedule: Q04DX003 (ip), vehicle: saline
  T/C: 100 % of control

## CCOc1ccc(N2C(=O)CC(Sc3ccccc3N)C2=O)cc1 (stereo unspecified)
[1]; dose: 100.0 mg/kg/injection, schedule: Q01DX001 (ip), vehicle: Klucel (hydroxypropylcellulose) (HPC)
  T/C: 105 % of control
[1]; dose: 100.0 mg/kg/injection, schedule: Q04DX003 (ip), vehicle: Klucel (hydroxypropylcellulose) (HPC)
  T/C: 100 % of control
[1]; dose: 200.0 mg/kg/injection, schedule: Q01DX001 (ip), vehicle: Klucel (hydroxypropylcellulose) (HPC)
  T/C: 100 % of control
[1]; dose: 200.0 mg/kg/injection, schedule: Q04DX003 (ip), vehicle: Klucel (hydroxypropylcellulose) (HPC)
  T/C: 90 % of control
[1]; dose: 400.0 mg/kg/injection, schedule: Q01DX001 (ip), vehicle: Klucel (hydroxypropylcellulose) (HPC)
  T/C: 100 % of control
[1]; dose: 400.0 mg/kg/injection, schedule: Q04DX003 (ip), vehicle: Klucel (hydroxypropylcellulose) (HPC)
  T/C: 100 % of control
